We go through eleven compounds from ChEMBL document CHEMBL1201862, “PubChem BioAssay data set” (2004).

Among the test systems are CAKI-1; HOP-62; HOP-92; Hs-578T; IGROV-1; M14; MDA-MB-231; NCI-H226; NCI-H23; NCI-H522; OVCAR-4; OVCAR-5; RPMI-8226; SF-295; SF-539; SK-MEL-5; SW-620; UO-31; UACC-62; SK-MEL-2.
Assay in all cases: NCI tumour cell line growth inhibition, 48 h

Each structure is given as a SMILES string.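 Each compound was tested at five concentrations against cells in 96-well plates for 48 hours. Here, GI50 denotes the concentration required for 50% inhibition of growth.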 Active and inactive are the calls of the source. Cut-off read from the data, not from the text of the source: active = GI50 up to about 1.1 µM and inactive = higher.

Regarding `Cc1csc2c(=O)n(COCc3ccccc3)c(=O)[nH]c12`, the GI50 in the test on CAKI-1 was > 100 µM (inactive); in the test with HOP-62 it was 59.8 µM (inactive); in the test with HOP-92, 40.8 µM (inactive); in the test on Hs-578T, 65 µM (inactive); in the test with IGROV-1, > 100 µM (inactive); with M14, > 100 µM (inactive). For the same compound, the GI50 in the test with MDA-MB-231 is > 100 µM (inactive); with NCI-H226, > 100 µM (inactive); with NCI-H23, > 100 µM (inactive); with NCI-H522, 94.8 µM (inactive); in the test with OVCAR-4, > 100 µM (inactive); in the test with OVCAR-5, > 100 µM (inactive). For the same compound, the GI50 with RPMI-8226 was > 100 µM (inactive); with SF-295, > 100 µM (inactive); with SF-539, > 100 µM (inactive); with SK-MEL-5 it was 91.2 µM (inactive); in the test with SW-620, > 100 µM (inactive); in the test on UO-31, 89.5 µM (inactive).
For `CC(=O)OCC1C(C(C)OC(C)=O)CCC2C1CCC1(C)C(OC(C)=O)CCC21` (configuration not stated), the GI50 in the test with CAKI-1 was 37.4 µM (inactive); with HOP-62 it was 21.5 µM (inactive); in the test with HOP-92 it was 17.9 µM (inactive); with Hs-578T it was > 10 µM (inactive); in the test with IGROV-1, 20 µM (inactive); with M14 it was 17.1 µM (inactive). Moreover, the GI50 was 15.6 µM (inactive) in the test on MDA-MB-231; 16.6 µM (inactive) in the test on NCI-H226; 24.1 µM (inactive) in the test with NCI-H23; 20.6 µM (inactive) in the test on NCI-H522; 19.8 µM (inactive) with OVCAR-4; 54.6 µM (inactive) in the test with OVCAR-5. Besides, the GI50 with RPMI-8226 is 16.5 µM (inactive); in the test on SF-295, 21 µM (inactive); in the test on SF-539, 17.7 µM (inactive); with SK-MEL-5 it was 16.6 µM (inactive); in the test with SW-620 it was 17.9 µM (inactive); in the test with UACC-62 it was 12.9 µM (inactive). For the same compound, in the test with UO-31, the GI50 is 61.9 µM (inactive).
As for `Cc1oncc1/N=C1\C=C(O)C(=O)c2ccccc21`, the GI50 in the test with CAKI-1 was 9.18 µM (inactive); in the test with HOP-62, 17.4 µM (inactive); in the test on HOP-92 it was 10.4 µM (inactive); with Hs-578T, 9.12 µM (inactive); in the test on IGROV-1, 3.57 µM (inactive); in the test on M14 it was 6.1 µM (inactive). Also, the GI50 is 8.47 µM (inactive) in the test with MDA-MB-231; 19 µM (inactive) in the test with NCI-H226; 3.79 µM (inactive) with NCI-H23; 5.41 µM (inactive) in the test on NCI-H522; 3.62 µM (inactive) in the test on OVCAR-4; 13.5 µM (inactive) in the test on OVCAR-5. Moreover, the GI50 was 7.64 µM (inactive) in the test with RPMI-8226; 7.66 µM (inactive) with SF-295; 4.65 µM (inactive) in the test on SF-539; 1.95 µM (inactive) in the test with SK-MEL-5; 4.4 µM (inactive) with SW-620; 2.99 µM (inactive) in the test with UACC-62. For the same compound, the GI50 in the test on UO-31 is 14.1 µM (inactive).
For the compound `Cc1cc(-c2ccccc2)nc2oc(=O)n(C)c12`, the GI50 with CAKI-1 is 49.1 µM (inactive); in the test with HOP-62 it was > 100 µM (inactive); with HOP-92, 86.5 µM (inactive); in the test with Hs-578T, > 100 µM (inactive); in the test on IGROV-1 it was 53.3 µM (inactive); in the test with M14 it was > 100 µM (inactive). The GI50 with MDA-MB-231 was 64.9 µM (inactive); in the test on NCI-H226 it was > 100 µM (inactive); in the test with NCI-H23 it was 83.9 µM (inactive); in the test on NCI-H522 it was > 100 µM (inactive); in the test on OVCAR-4, > 100 µM (inactive); in the test on OVCAR-5 it was > 100 µM (inactive). For the same compound, the GI50 is 39.5 µM (inactive) in the test with SF-295; 79.3 µM (inactive) with SK-MEL-2; > 100 µM (inactive) in the test on SK-MEL-5; > 100 µM (inactive) in the test on SW-620; > 100 µM (inactive) with UACC-62; > 100 µM (inactive) in the test on UO-31.
On to `O=S(=O)(N1CCCCN(S(=O)(=O)C(F)(F)F)CCCN(S(=O)(=O)C(F)(F)F)CCCN(S(=O)(=O)C(F)(F)F)CCCCN(S(=O)(=O)C(F)(F)F)CCCN(S(=O)(=O)C(F)(F)F)CCC1)C(F)(F)F`, for which the GI50 was 37.2 µM (inactive) with CAKI-1; 29.7 µM (inactive) in the test on HOP-62; 31 µM (inactive) in the test on HOP-92; 30.3 µM (inactive) with Hs-578T; 35.6 µM (inactive) in the test with IGROV-1; 63.7 µM (inactive) in the test on M14. For the same compound, the GI50 was > 100 µM (inactive) in the test with MDA-MB-231; 81.8 µM (inactive) in the test on NCI-H226; 56.5 µM (inactive) in the test with NCI-H23; 35.2 µM (inactive) with NCI-H522; > 100 µM (inactive) in the test on OVCAR-4; > 100 µM (inactive) in the test on OVCAR-5. The GI50 was 22.9 µM (inactive) with SF-295; 28.9 µM (inactive) in the test with SF-539; 76.4 µM (inactive) in the test with SK-MEL-2; 35 µM (inactive) in the test on SK-MEL-5; > 100 µM (inactive) with SW-620; 64.6 µM (inactive) in the test on UACC-62. In addition, in the test on UO-31, the GI50 is > 100 µM (inactive).
Take `CC(C)(C)[Si](C)(C)OCC1OC(n2ccc(N)nc2=O)C(O[Si](C)(C)C(C)(C)C)C1O[Si](C)(C)C(C)(C)C` (configuration not stated): the GI50 in the test on HOP-62 is 2.06 µM (inactive); in the test with HOP-92, 2.17 µM (inactive); in the test with Hs-578T, 2.55 µM (inactive); in the test on IGROV-1, 2.04 µM (inactive); with M14, 1.8 µM (inactive); in the test with MDA-MB-231, 10.8 µM (inactive). Also, the GI50 was 1.36 µM (inactive) with NCI-H226; 1.83 µM (inactive) in the test with NCI-H522; 0.0356 µM (active) in the test with OVCAR-4; 1.63 µM (inactive) in the test with OVCAR-5; 1.74 µM (inactive) in the test with SF-295; 2.07 µM (inactive) in the test on SK-MEL-2. The GI50 in the test on SK-MEL-5 was 2.01 µM (inactive); in the test on SW-620, 1.58 µM (inactive); in the test on UACC-62 it was 1.94 µM (inactive); in the test with UO-31, 1.71 µM (inactive).
Regarding `Cc1ccc(NC(=O)C23CC4CC(CC(C4)C2)C3)c(C(=O)NNC(=O)c2ccc(Cl)cc2)c1`, the GI50 with CAKI-1 is 23.3 µM (inactive); with HOP-62 it was 18.4 µM (inactive); in the test with HOP-92, 9.48 µM (inactive); in the test with Hs-578T it was 4.3 µM (inactive); with IGROV-1 it was < 0.01 µM (active); in the test on M14, 31.8 µM (inactive). Further, the GI50 is 15.5 µM (inactive) in the test on MDA-MB-231; 17 µM (inactive) in the test with NCI-H226; 12.9 µM (inactive) with NCI-H23; 12 µM (inactive) in the test on NCI-H522; 16.7 µM (inactive) in the test with OVCAR-4; 17.3 µM (inactive) in the test with OVCAR-5. The GI50 is 19 µM (inactive) in the test with RPMI-8226; 22.9 µM (inactive) in the test with SF-295; 18.1 µM (inactive) in the test with SF-539; 18.4 µM (inactive) with SK-MEL-5; 26.2 µM (inactive) in the test on SW-620; 19.5 µM (inactive) in the test on UACC-62. Also, the GI50 with UO-31 was 16.5 µM (inactive).
For `O=c1[nH]c(=O)n(Cc2ccccc2CO)cc1Sc1ccccc1`, the GI50 in the test on CAKI-1 is 13.5 µM (inactive); with HOP-62, 32.8 µM (inactive); with HOP-92, 36.2 µM (inactive); in the test with Hs-578T it was 23.1 µM (inactive); with IGROV-1, 12.3 µM (inactive); in the test on M14 it was 19.7 µM (inactive). Besides, the GI50 is 11.8 µM (inactive) in the test on MDA-MB-231; 22.4 µM (inactive) in the test on NCI-H226; 17.4 µM (inactive) in the test with NCI-H23; 1.87 µM (inactive) in the test on NCI-H522; 50 µM (inactive) in the test on OVCAR-4; > 100 µM (inactive) in the test with OVCAR-5. Further, the GI50 in the test with SF-295 was 30 µM (inactive); in the test on SF-539 it was 23.2 µM (inactive); in the test with SK-MEL-2, 19.3 µM (inactive); in the test on SK-MEL-5 it was 10.1 µM (inactive); in the test on SW-620, 36.9 µM (inactive); with UACC-62, 31.3 µM (inactive). Also, the GI50 in the test on UO-31 is 7.4 µM (inactive).
Regarding `c1cncc(CC2(c3cc4ccccc4[nH]3)OCCO2)c1`, the GI50 with CAKI-1 was > 100 µM (inactive); in the test with HOP-92, > 100 µM (inactive); in the test on Hs-578T it was 96.8 µM (inactive); with IGROV-1, 22.1 µM (inactive); in the test with MDA-MB-231, > 100 µM (inactive); in the test on NCI-H226, > 100 µM (inactive). Further, the GI50 in the test on NCI-H23 was > 100 µM (inactive); in the test with NCI-H522, > 100 µM (inactive); in the test with OVCAR-4, > 100 µM (inactive); in the test on SF-295 it was > 100 µM (inactive); in the test with SF-539, 58.3 µM (inactive); in the test on SK-MEL-2 it was > 100 µM (inactive). Further, the GI50 is 61.8 µM (inactive) in the test on SK-MEL-5, > 100 µM (inactive) in the test with SW-620, > 100 µM (inactive) in the test on UACC-62 and 40.6 µM (inactive) with UO-31.
Regarding `O=C(CSCC(=O)N/N=C\c1cc(Cl)cc(Cl)c1O)N/N=C\c1cc(Cl)cc(Cl)c1O`, the GI50 in the test with CAKI-1 was 3.48 µM (inactive); in the test on HOP-62 it was 5.69 µM (inactive); with HOP-92, 5.73 µM (inactive); with Hs-578T, 2.08 µM (inactive); with IGROV-1, 3.37 µM (inactive); in the test on M14, 4.93 µM (inactive). For the same compound, the GI50 in the test with MDA-MB-231 was 2.48 µM (inactive); with NCI-H226, 3.62 µM (inactive); in the test with NCI-H23, 10.1 µM (inactive); in the test on NCI-H522, 1.71 µM (inactive); in the test with OVCAR-4 it was 2.42 µM (inactive); with OVCAR-5 it was 10.4 µM (inactive). For the same compound, the GI50 is 6.53 µM (inactive) in the test with SF-295; 2.58 µM (inactive) in the test with SF-539; 2.51 µM (inactive) with SK-MEL-2; 3.42 µM (inactive) in the test on SK-MEL-5; 3.79 µM (inactive) with SW-620; 3.64 µM (inactive) in the test with UACC-62. Also, the GI50 with UO-31 is 4 µM (inactive).
For `C/C(=N\O)c1cccc(Nc2nc3ccccc3c3occc23)c1`, the GI50 in the test with CAKI-1 is 10.7 µM (inactive); in the test on HOP-62 it was 18.3 µM (inactive); in the test with HOP-92, 5.3 µM (inactive); in the test on Hs-578T it was 12.1 µM (inactive); in the test on M14 it was 12.7 µM (inactive); in the test with MDA-MB-231 it was 11.9 µM (inactive). For the same compound, the GI50 in the test with NCI-H226 is 1.72 µM (inactive); in the test with OVCAR-4, 12.4 µM (inactive); in the test with OVCAR-5, 14.9 µM (inactive); in the test on RPMI-8226, 7.06 µM (inactive); with SF-295, 8.83 µM (inactive); in the test with SF-539 it was 15.5 µM (inactive). For the same compound, the GI50 in the test with SK-MEL-5 is 13.6 µM (inactive); with UACC-62 it was < 0.01 µM (active); in the test on UO-31, 0.0303 µM (active).
